From patent publication US8304371B2, “Insecticidal arylpyrrolines” (Bayer Cropscience AG, priority 2008, dated 2012)

Legend:
Format in all cases: in vivo
[1] = tested on: Strain of Green Peach Aphid (Mvzus persicas) which is Resistant to Organic Phosphorus and Carbamate Agents; experiment: Test against resistant green peach aphid, spray on egg plant; conditions: active compound concentration 500 ppm; after 7 days
Protocol: (§1) Unless nomentioned otherwise, the test solutions were prepared as follows:
(§2) Containing as solvent: Dimethylformamide, 3 parts by weight; and as emulsifier: Polyoxyethylene alkyl phenyl ether, 1 part by weight
(§3) To prepare the test solution, 1 part by weight of an active compound is mixed with the above-mentioned amount of solvent containing the above-mentioned amount of emulsifier, and the mixture is diluted with water to the desired concentration.
About 30 to 50 of the resistant green peach aphids were inoculated per seedling, onto the leaves of egg plant at the two-true leaf stage, which plant had been cultivated in a pot having a diameter of 6 cm. One day after the inoculation, the test solution at the appropriate concentration was sprayed thereon in a sufficient amount using a spray gun. After the spraying, the plant pot was placed in a greenhouse at 28° C., and after 7 days, the insecticidal activity was calculated. An insecticidal activity of 100% means that all aphids were killed, whereas an insecticidal activity of […] means that no aphid was killed. The test was repeated two times.

[2] = tested on: Cucurbit Leaf Beetle (Aulacophora femoralis); experiment: Test against cucurbit leaf beetle, cucumber leaf dip; conditions: active compound concentration 100 ppm; second-instar larvae; after 7 days
Protocol: as §1, §2, §3
Cucumber leaves were immersed in the test solution at the appropriate concentration, and the leaves were dried in air. The leaves were then placed in a plastic cup containing aseptically sterilized black soil, and five second-instar larvae of cucurbit leaf beetle were released therein. After 7 days, the number of dead larvae was counted, and thus the insecticidal activity was calculated. An insecticidal activity of 100% means that all beetles were killed, whereas an insecticidal activity of 0% means that no beetle was killed.

[3] = tested on: Tobacco Cutworm (Spodoptera litura) Larvae; experiment: Test against tobacco cutworm (Spodoptera litura) larvae, leaf dip; conditions: active compound concentration 100 ppm; third-instar larvae; after 7 days
Protocol: as §1, §2, §3
The leaves of sweet potato were immersed in the test solution at the appropriate concentration, and the leaves were dried in air. The leaves were then placed in a petri dish having a diameter of 9 cm, and ten third-instar larvae of tobacco cutworm were released therein. The petri dish was placed in a temperature chamber at 25° C. After 2 days and 4 days sweet potato leaves were additionally added. After 7 days, the number of dead larvae was counted, to calculate the insecticidal activity. An insecticidal activity of 100% means that all larvae were killed, whereas an insecticidal activity of 0% means that no larva was killed. In the current test, the results of two petri dishes for each partition were averaged.

[4] = tested on: Two-Spotted Spider Mite (Tetranvchus urticae); experiment: Test against two-spotted spider mite, spray on kidney bean; conditions: active compound concentration 100 ppm; adult mites; after 7 days
Protocol: as §1, §2, §3
50 to 100 adult two-spotted spider mites were inoculated onto the leaves of kidney beans at the two-true leaf stage, which plant had been cultivated in a pot having a diameter of 6 cm. After one day, test solution at the appropriate concentration was sprayed thereon in a sufficient amount using a spray gun. After the spraying, the plant pot was placed inside a greenhouse, and after 7 days, the acaricidal activity was calculated. An acaricidal activity of 100% means that all mites were killed, whereas an acaricidal activity of 0% means that no mite was killed.

O=C(NCc1ccc(C2=NCC(c3cc(Cl)c(Cl)c(C(F)(F)F)c3)(C(F)(F)F)C2)cc1Br)C1CC1 (centres unmarked) [2-172]
100%: insecticidal activity [1] | insecticidal activity [2] | insecticidal activity [3] | acaricidal activity [4]

CCC(=O)NCc1ccc(C2=NCC(c3cc(Cl)c(Cl)c(C(F)(F)F)c3)(C(F)(F)F)C2)cc1C(F)(F)F (centres unmarked) [2-205]
100%: insecticidal activity [1] | insecticidal activity [2] | insecticidal activity [3] | acaricidal activity [4]

O=C(NCc1ccc(C2=NCC(c3cc(Cl)c(Cl)c(Cl)c3)(C(F)(F)F)C2)c2ccccc12)C1CC1 (centres unmarked) [11-7]
100%: insecticidal activity [1] | insecticidal activity [2] | insecticidal activity [3] | acaricidal activity [4]

N#Cc1cc(C2=NCC(c3cc(Cl)cc(C(F)(F)F)c3)(C(F)(F)F)C2)ccc1-n1cncn1 (centres unmarked) [1-95]
100%: insecticidal activity [1] | insecticidal activity [2] | insecticidal activity [3] | acaricidal activity [4]

CCNC(=O)NCc1ccc(C2=NCC(c3cc(Cl)c(Cl)c(Cl)c3)(C(F)(F)F)C2)cc1Br (centres unmarked) [2-195]
100%: insecticidal activity [1] | insecticidal activity [2] | insecticidal activity [3] | acaricidal activity [4]

O=C(CC(F)(F)F)NCc1ccc(C2=NCC(c3cc(Cl)cc(Cl)c3)(C(F)(F)F)C2)cc1C(F)(F)F (racemic) [2-211]
100%: insecticidal activity [1] | insecticidal activity [2] | acaricidal activity [4]

O=C(CC(F)(F)F)NCc1ccc(C2=NCC(c3cc(C(F)(F)F)cc(C(F)(F)F)c3)(C(F)(F)F)C2)cc1C(F)(F)F (centres unmarked) [2-168]
100%: insecticidal activity [1] | insecticidal activity [2] | insecticidal activity [3] | acaricidal activity [4]

O=C(CC(F)(F)F)NCc1ccc(C2=NCC(c3cc(Cl)c(Cl)c(Cl)c3)(C(F)(F)F)C2)cc1Cl (centres unmarked) [2-159]
100%: insecticidal activity [1] | insecticidal activity [2] | insecticidal activity [3] | acaricidal activity [4]

O=C(CC(F)(F)F)NCc1ccc(C2=NCC(c3cc(C(F)(F)F)cc(C(F)(F)F)c3)(C(F)(F)F)C2)cc1Br (centres unmarked) [2-180]
100%: insecticidal activity [1] | insecticidal activity [2] | insecticidal activity [3] | acaricidal activity [4]

O=C(NCc1ccc(C2=NCC(c3cc(Cl)cc(Cl)c3)(C(F)(F)F)C2)cc1C(F)(F)F)C1CC1 (racemic) [2-212]
100%: insecticidal activity [1] | insecticidal activity [2] | acaricidal activity [4]

CCC(=O)NCc1ccc(C2=NCC(c3cc(Cl)c(Cl)c(Cl)c3)(C(F)(F)F)C2)c2ccccc12 (centres unmarked) [11-6]
100%: insecticidal activity [1] | insecticidal activity [2] | insecticidal activity [3] | acaricidal activity [4]

CC(=O)NCc1ccc(C2=NCC(c3cc(Cl)c(Cl)c(Cl)c3)(C(F)(F)F)C2)cc1C(F)(F)F (centres unmarked) [2-161]
100%: insecticidal activity [1] | insecticidal activity [2] | insecticidal activity [3] | acaricidal activity [4]

O=C(CC(F)(F)F)NCc1ccc(C2=NCC(c3cc(Cl)cc(Cl)c3)(C(F)(F)F)C2)cc1Br (centres unmarked) [2-154]
100%: insecticidal activity [2] | insecticidal activity [3] | acaricidal activity [4]

CCC(=O)NCc1ccc(C2=NCC(c3cc(Cl)cc(Cl)c3)(C(F)(F)F)C2)cc1Br (centres unmarked) [2-19]
100%: insecticidal activity [2] | insecticidal activity [3]

O=C(NCc1ccc(C2=NCC(c3cc(Cl)c(Cl)c(Cl)c3)(C(F)(F)F)C2)cc1Br)C1CC1 (centres unmarked) [2-170]
100%: insecticidal activity [1] | insecticidal activity [2] | insecticidal activity [3] | acaricidal activity [4]

N#Cc1cc(C2=NCC(c3cc(Br)cc(Br)c3)(C(F)(F)F)C2)ccc1-n1cncn1 (centres unmarked) [1-94]
100%: insecticidal activity [1] | insecticidal activity [2] | insecticidal activity [3] | acaricidal activity [4]

CC(=O)NCc1ccc(C2=NCC(c3cc(Cl)c(Cl)c(Cl)c3)(C(F)(F)F)C2)cc1Cl (centres unmarked) [2-156]
100%: insecticidal activity [1] | insecticidal activity [2] | insecticidal activity [3] | acaricidal activity [4]

CCC(=O)NCc1ccc(C2=NCC(c3cc(Cl)c(Cl)c(Cl)c3)(C(F)(F)F)C2)cc1C(F)(F)F (centres unmarked) [2-162]
100%: insecticidal activity [1] | insecticidal activity [2] | insecticidal activity [3] | acaricidal activity [4]

N#Cc1cc(C2=NCC(c3cc(C(F)(F)F)cc(C(F)(F)F)c3)(C(F)(F)F)C2)ccc1-n1cncn1 (centres unmarked) [1-72]
100%: insecticidal activity [1] | insecticidal activity [2] | insecticidal activity [3] | acaricidal activity [4]

CC(=O)NCc1ccc(C2=NCC(c3cc(Cl)cc(Cl)c3)(C(F)(F)F)C2)cc1C(F)(F)F (centres unmarked) [2-160]
100%: insecticidal activity [1] | insecticidal activity [2] | insecticidal activity [3] | acaricidal activity [4]

CSCC(=O)NCc1ccc(C2=NCC(c3cc(Cl)c(Cl)c(Cl)c3)(C(F)(F)F)C2)cc1C(F)(F)F (racemic) [2-209]
100%: insecticidal activity [1] | insecticidal activity [2] | insecticidal activity [3] | acaricidal activity [4]

O=C(NCc1ccc(C2=NCC(c3cc(Cl)c(Cl)c(Cl)c3)(C(F)(F)F)C2)cc1Cl)C1CC1 (centres unmarked) [2-158]
100%: insecticidal activity [1] | insecticidal activity [2] | insecticidal activity [3] | acaricidal activity [4]

O=C(CC(F)(F)F)NCc1ccc(C2=NCC(c3cc(Cl)c(Cl)c(Cl)c3)(C(F)(F)F)C2)cc1C(F)(F)F (centres unmarked) [2-164]
100%: insecticidal activity [1] | insecticidal activity [2] | insecticidal activity [3] | acaricidal activity [4]

O=C(NCc1ccc(C2=NCC(c3cc(Cl)cc(Cl)c3)(C(F)(F)F)C2)cc1Br)C1CC1 (centres unmarked) [2-153]
100%: insecticidal activity [2] | insecticidal activity [3]

CCC(=O)NCc1ccc(C2=NCC(c3cc(Cl)c(Cl)c(Cl)c3)(C(F)(F)F)C2)cc1Cl (centres unmarked) [2-157]
100%: insecticidal activity [1] | insecticidal activity [2] | insecticidal activity [3] | acaricidal activity [4]

O=C(NCc1ccc(C2=NCC(c3cc(C(F)(F)F)cc(C(F)(F)F)c3)(C(F)(F)F)C2)cc1Br)C1CC1 (centres unmarked) [2-179]
100%: insecticidal activity [1] | insecticidal activity [2] | insecticidal activity [3] | acaricidal activity [4]

CC(=O)NCc1ccc(C2=NCC(c3cc(C(F)(F)F)cc(C(F)(F)F)c3)(C(F)(F)F)C2)cc1C(F)(F)F (centres unmarked) [2-165]
100%: insecticidal activity [1] | insecticidal activity [2] | insecticidal activity [3] | acaricidal activity [4]

O=C(CC(F)(F)F)NCc1ccc(C2=NCC(c3cc(Cl)c(Cl)c(Cl)c3)(C(F)(F)F)C2)c2ccccc12 (centres unmarked) [11-8]
100%: insecticidal activity [1] | insecticidal activity [2] | insecticidal activity [3] | acaricidal activity [4]

O=C(CC(F)(F)F)NCc1ccc(C2=NCC(c3cc(Cl)c(Cl)c(Cl)c3)(C(F)(F)F)C2)cc1Br (centres unmarked) [2-171]
100%: insecticidal activity [1] | insecticidal activity [2] | insecticidal activity [3] | acaricidal activity [4]

CCC(=O)NCc1ccc(C2=NCC(c3cc(C(F)(F)F)cc(C(F)(F)F)c3)(C(F)(F)F)C2)cc1C(F)(F)F (centres unmarked) [2-166]
100%: insecticidal activity [1] | insecticidal activity [2] | insecticidal activity [3] | acaricidal activity [4]
